The NIST ThermoML archive (doi:10.1016/j.jct.2007.11.010)
Numbers after ± are expanded uncertainties.

Assay: xn = mol fraction of the nth substance listed
Details: 101 kPa, Liquid

OCCN1CCOCC1 [4-morpholineethanol] + CC(C)O
mass density [kg/m3]
Details | 293.15 K | 298.15 K | 303.15 K | 313.15 K | 323.15 K
x1 = 0.0543 | 810.11 ± 0.88 | 806.22 ± 0.89 | 801.63 ± 0.9 | 792.98 ± 0.93 | 784.44 ± 0.96
x1 = 0.1127 | 835.5 ± 0.8 | 831.48 ± 0.82 | 826.84 ± 0.83 | 818.19 ± 0.86 | 809.79 ± 0.88
x1 = 0.1873 | 865.79 ± 0.72 | 861.61 ± 0.74 | 856.92 ± 0.75 | 848.29 ± 0.78 | 840.07 ± 0.8
x1 = 0.2468 | 888.39 ± 0.66 | 884.1 ± 0.7 | 879.38 ± 0.69 | 870.77 ± 0.72 | 862.71 ± 0.74
x1 = 0.2874 | 903.13 ± 0.63 | 898.77 ± 0.64 | 894.03 ± 0.65 | 885.45 ± 0.68 | 877.5 ± 0.7
x1 = 0.3248 | 916.03 ± 0.59 | 911.6 ± 0.6 | 906.84 ± 0.62 | 898.29 ± 0.64 | 890.46 ± 0.67
x1 = 0.3873 | 936.59 ± 0.54 | 932.06 ± 0.56 | 927.29 ± 0.57 | 918.79 ± 0.6 | 911.14 ± 0.62
x1 = 0.4267 | 948.75 ± 0.51 | 944.16 ± 0.53 | 939.38 ± 0.54 | 930.92 ± 0.57 | 923.4 ± 0.6
x1 = 0.4882 | 967 ± 1 | 962.32 ± 0.49 | 957.53 ± 0.5 | 949.14 ± 0.53 | 941.81 ± 0.55
x1 = 0.5237 | 976.91 ± 0.45 | 972.17 ± 0.46 | 967.38 ± 0.47 | 959.03 ± 0.5 | 951.82 ± 0.52
x1 = 0.5894 | 994.19 ± 0.4 | 989.37 ± 0.42 | 984.57 ± 0.43 | 976.32 ± 0.45 | 969.32 ± 0.47
x1 = 0.6422 | 1007.31 ± 0.41 | 1002.43 ± 0.4 | 997.63 ± 0.4 | 989.46 ± 0.42 | 982.63 ± 0.44
x1 = 0.6899 | 1018.36 ± 0.46 | 1013.43 ± 0.44 | 1008.64 ± 0.42 | 1000.53 ± 0.4 | 993.87 ± 0.41
x1 = 0.7439 | 1030.26 ± 0.51 | 1025.27 ± 0.49 | 1020.49 ± 0.47 | 1012.47 ± 0.44 | 1005.99 ± 0.42
x1 = 0.7855 | 1038.88 ± 0.54 | 1033.86 ± 0.52 | 1029.09 ± 0.51 | 1021.13 ± 0.48 | 1014.79 ± 0.46
x1 = 0.8238 | 1046.42 ± 0.57 | 1041.36 ± 0.56 | 1036.59 ± 0.54 | 1028.7 ± 0.5 | 1022.49 ± 0.49
x1 = 0.8841 | 1057.54 ± 0.62 | 1052.43 ± 0.61 | 1047.69 ± 0.59 | 1039.9 ± 0.6 | 1033.9 ± 0.5
x1 = 0.9247 | 1064.51 ± 0.66 | 1059.37 ± 0.64 | 1054.64 ± 0.62 | 1046.93 ± 0.6 | 1041.06 ± 0.57
x1 = 0.9544 | 1069.21 ± 0.68 | 1064.05 ± 0.66 | 1059.33 ± 0.65 | 1051.68 ± 0.62 | 1045.92 ± 0.6
x1 = 0.9844 | 1074.11 ± 0.7 | 1068.93 ± 0.69 | 1064.23 ± 0.67 | 1056.62 ± 0.64 | 1050.96 ± 0.62

OCCN1CCOCC1 [4-morpholineethanol] + CCCO
mass density [kg/m3]
Details | 293.15 K | 298.15 K | 303.15 K | 313.15 K | 323.15 K
x1 = 0.0441 | 830.17 ± 0.82 | 823.23 ± 0.84 | 815.35 ± 0.86 | 807.23 ± 0.89 | 799.06 ± 0.91
x1 = 0.1025 | 854.6 ± 0.7 | 847.85 ± 0.77 | 839.76 ± 0.79 | 831.61 ± 0.82 | 823.54 ± 0.84
x1 = 0.1771 | 883.51 ± 0.67 | 877.01 ± 0.69 | 868.66 ± 0.71 | 860.49 ± 0.74 | 852.56 ± 0.76
x1 = 0.2366 | 905.01 ± 0.61 | 898.71 ± 0.63 | 890.18 ± 0.66 | 882 ± 1 | 874.19 ± 0.7
x1 = 0.2772 | 919.15 ± 0.58 | 912.99 ± 0.6 | 904.34 ± 0.62 | 896.16 ± 0.64 | 888.43 ± 0.67
x1 = 0.3146 | 931.56 ± 0.55 | 925.53 ± 0.56 | 916.77 ± 0.59 | 908.59 ± 0.61 | 900.94 ± 0.64
x1 = 0.3771 | 951.28 ± 0.5 | 945.46 ± 0.52 | 936.54 ± 0.54 | 928.37 ± 0.56 | 920.85 ± 0.59
x1 = 0.4165 | 962.97 ± 0.47 | 957.29 ± 0.49 | 948.27 ± 0.51 | 940.11 ± 0.54 | 932.69 ± 0.56
x1 = 0.478 | 980.28 ± 0.43 | 974.81 ± 0.45 | 965.64 ± 0.48 | 957.51 ± 0.5 | 950.23 ± 0.52
x1 = 0.5135 | 989.72 ± 0.41 | 984.38 ± 0.43 | 975.14 ± 0.45 | 967.02 ± 0.47 | 959.82 ± 0.49
x1 = 0.5792 | 1006.06 ± 0.4 | 1000.96 ± 0.39 | 991.58 ± 0.41 | 983.5 ± 0.4 | 976.47 ± 0.45
x1 = 0.632 | 1018.06 ± 0.45 | 1013.14 ± 0.43 | 1003.67 ± 0.4 | 995.64 ± 0.4 | 988.74 ± 0.42
x1 = 0.6797 | 1028.12 ± 0.49 | 1023.38 ± 0.47 | 1013.83 ± 0.44 | 1005.84 ± 0.41 | 999.07 ± 0.4
x1 = 0.7337 | 1038.68 ± 0.53 | 1034.12 ± 0.52 | 1024.5 ± 0.5 | 1016.57 ± 0.46 | 1009.94 ± 0.43
x1 = 0.7753 | 1046.19 ± 0.56 | 1041.78 ± 0.55 | 1032.12 ± 0.52 | 1024.22 ± 0.49 | 1017.71 ± 0.47
x1 = 0.8136 | 1052.76 ± 0.59 | 1048.48 ± 0.58 | 1038.78 ± 0.55 | 1030.93 ± 0.52 | 1024.51 ± 0.5
x1 = 0.8739 | 1062.19 ± 0.64 | 1058.11 ± 0.62 | 1048.36 ± 0.59 | 1040.58 ± 0.56 | 1034.34 ± 0.54
x1 = 0.9145 | 1067.81 ± 0.67 | 1063.88 ± 0.65 | 1054.1 ± 0.6 | 1046.38 ± 0.59 | 1040.25 ± 0.57
x1 = 0.9442 | 1071.98 ± 0.69 | 1068.14 ± 0.67 | 1058.34 ± 0.64 | 1050.66 ± 0.61 | 1044.61 ± 0.59
x1 = 0.9742 | 1076.35 ± 0.71 | 1072.61 ± 0.7 | 1062.79 ± 0.66 | 1055.14 ± 0.63 | 1049.16 ± 0.61

OCCN1CCOCC1 [4-morpholineethanol] + CCC(C)O
mass density [kg/m3]
Details | 293.15 K | 298.15 K | 303.15 K | 313.15 K | 323.15 K
x1 = 0.0542 | 824.77 ± 0.83 | 821.68 ± 0.84 | 817.07 ± 0.86 | 809.49 ± 0.88 | 804.37 ± 0.9
x1 = 0.1098 | 843.95 ± 0.78 | 840.73 ± 0.79 | 836.08 ± 0.8 | 828.46 ± 0.83 | 823.27 ± 0.84
x1 = 0.1855 | 869.23 ± 0.71 | 865.83 ± 0.72 | 861.15 ± 0.74 | 853.47 ± 0.76 | 848.18 ± 0.78
x1 = 0.2431 | 887.71 ± 0.66 | 884.17 ± 0.67 | 879.46 ± 0.69 | 871.75 ± 0.71 | 866.4 ± 0.73
x1 = 0.2876 | 901.62 ± 0.63 | 897.97 ± 0.64 | 893.25 ± 0.65 | 885.52 ± 0.68 | 880.12 ± 0.69
x1 = 0.3266 | 913.58 ± 0.6 | 909.84 ± 0.61 | 905.11 ± 0.62 | 897.36 ± 0.65 | 891.91 ± 0.66
x1 = 0.3854 | 930.89 ± 0.56 | 927.02 ± 0.57 | 922.28 ± 0.58 | 914.51 ± 0.6 | 909.01 ± 0.62
x1 = 0.4277 | 943.01 ± 0.53 | 939.04 ± 0.54 | 934.29 ± 0.55 | 926.51 ± 0.58 | 920.97 ± 0.59
x1 = 0.4822 | 958.03 ± 0.5 | 953.95 ± 0.51 | 949.18 ± 0.52 | 941.4 ± 0.54 | 935.81 ± 0.56
x1 = 0.5189 | 967.85 ± 0.47 | 963.68 ± 0.48 | 958.92 ± 0.5 | 951.14 ± 0.52 | 945.51 ± 0.53
x1 = 0.5672 | 980.37 ± 0.44 | 976.09 ± 0.45 | 971.33 ± 0.47 | 963.55 ± 0.49 | 957.89 ± 0.5
x1 = 0.6044 | 989.72 ± 0.42 | 985.36 ± 0.43 | 980.59 ± 0.44 | 972.82 ± 0.46 | 967.14 ± 0.48
x1 = 0.6438 | 999.36 ± 0.39 | 994.93 ± 0.4 | 990.17 ± 0.42 | 982.4 ± 0.44 | 976.69 ± 0.46
x1 = 0.6798 | 1007.93 ± 0.42 | 1003.44 ± 0.41 | 998.68 ± 0.4 | 990.92 ± 0.42 | 985.19 ± 0.44
x1 = 0.7355 | 1020.77 ± 0.47 | 1016.16 ± 0.46 | 1011.41 ± 0.44 | 1003.67 ± 0.41 | 997.91 ± 0.41
x1 = 0.7942 | 1033.69 ± 0.53 | 1028.98 ± 0.51 | 1024.24 ± 0.49 | 1016.52 ± 0.47 | 1010.73 ± 0.45
x1 = 0.8427 | 1044.13 ± 0.57 | 1039.33 ± 0.55 | 1034.6 ± 0.54 | 1026.9 ± 0.51 | 1021.09 ± 0.49
x1 = 0.8785 | 1051.72 ± 0.6 | 1046.85 ± 0.59 | 1042.13 ± 0.57 | 1034.45 ± 0.54 | 1028.62 ± 0.52
x1 = 0.9235 | 1061.1 ± 0.6 | 1056.15 ± 0.63 | 1051.43 ± 0.61 | 1043.77 ± 0.58 | 1037.92 ± 0.56
x1 = 0.9844 | 1073.45 ± 0.7 | 1068.39 ± 0.68 | 1063.69 ± 0.67 | 1056.06 ± 0.64 | 1050.18 ± 0.62
